This experiment concerns NOMO1. As to the kind of experiment: cell viability relative to DMSO control; higher = less cytotoxic. The conditions noted are these: RPMI 5 mM glucose + 10% dialyzed FBS, 48 h. Put shortly: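 Library compounds in DMSO were pin-dosed in an 11-point threefold series (47 μM to 0.79 nM) onto leukemia cells in 1536-well plates (5 μl). Plates held 500 cells/well of NOMO1 or SEM or 1000 cells/well of P12-Ichikawa, each adapted for at least four passages in each medium. Luminescence was read with CellTiter-Glo One after 48 h at 37°C. Viability means the per-plate percentage relative to DMSO wells, using cell-free wells as background.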

SMILES strings stand for the structures.

As a reminder, the cell viability is a read-out of living cells in per cent, often relative to untreated cells. In the case of `CCCCc1ccc(N[S+](=O)([O-])c2ccc(C)c(C(=O)N3CCN(c4cccc(C)c4C)CC3)c2)cc1`, the cell viability is, setting by setting: (0.000781 µM) 125%; (0.00234 µM) 128%; (0.00702 µM) 120%; (0.0211 µM) 126%; (0.0632 µM) 126%; (0.19 µM) 130%. Also, the cell viability was found to be 130% (0.569 µM); 119% (1.71 µM); 131% (5.12 µM); 126% (15.4 µM); 108% (46.1 µM).
Take `COc1ccc2c(c1)CC[C@@H](CN(C)CC(=O)O)[C@H]2c1ccccc1`: the cell viability by setting is: (0.000781 µM) 120%; (0.00234 µM) 125%; (0.00702 µM) 125%; (0.0211 µM) 101%; (0.0632 µM) 127%; (0.19 µM) 130%. The cell viability by setting is: (0.569 µM) 125%; (1.71 µM) 123%; (5.12 µM) 85.2%; (15.4 µM) 29.8%; (46.1 µM) 36.6%.

These data come from the supplement of paper PMC11451515.
